Results as given in PubChem BioAssay (NCI).
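Briefly, cells in 96-well plates were exposed to five compound concentrations for 48 h, and endpoints were estimated by linear interpolation. TGI: concentration producing complete growth inhibition.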

Tests used:
Experiment in all cases: NCI-60 cell line screen, 48 h
HOP-92 NSCLC = system: HOP-92 NSCLC
COLO 205 colon = system: COLO 205 colon
SN12C renal = system: SN12C renal
RXF 393 renal = system: RXF 393 renal
MALME-3M melanoma = system: MALME-3M melanoma
M14 melanoma = system: M14 melanoma
786-0 renal = system: 786-0 renal
HCT-116 colon = system: HCT-116 colon
LXFL 529 NSCLC = system: LXFL 529 NSCLC
SK-OV-3 ovarian = system: SK-OV-3 ovarian
NCI-H226 lung = system: NCI-H226 lung
OVCAR-5 ovarian = system: OVCAR-5 ovarian
MOLT-4 leukemia = system: MOLT-4 leukemia
HT29 colon = system: HT29 colon
SF-539 CNS = system: SF-539 CNS
SNB-19 CNS = system: SNB-19 CNS
LOX IMVI melanoma = system: LOX IMVI melanoma
A549 NSCLC = system: A549 NSCLC
CCRF-CEM leukemia = system: CCRF-CEM leukemia
SNB-75 CNS = system: SNB-75 CNS
NCI-H522 lung = system: NCI-H522 lung
HOP-62 NSCLC = system: HOP-62 NSCLC
KM20L2 colon = system: KM20L2 colon
SK-MEL-28 melanoma = system: SK-MEL-28 melanoma
CAKI-1 renal = system: CAKI-1 renal
A498 renal = system: A498 renal
NCI-H460 lung = system: NCI-H460 lung
SK-MEL-5 melanoma = system: SK-MEL-5 melanoma
SW-620 colon = system: SW-620 colon
XF 498 CNS = system: XF 498 CNS
HCT-15 colon = system: HCT-15 colon
OVCAR-4 ovarian = system: OVCAR-4 ovarian
DMS 114 small cell lung = system: DMS 114 small cell lung
HOP-18 NSCLC = system: HOP-18 NSCLC
SK-MEL-2 melanoma = system: SK-MEL-2 melanoma
OVCAR-3 ovarian = system: OVCAR-3 ovarian
ACHN renal = system: ACHN renal
K-562 leukemia = system: K-562 leukemia
SF-268 CNS = system: SF-268 CNS
NCI-H23 lung = system: NCI-H23 lung
KM12 colon = system: KM12 colon
RPMI-8226 leukemia = system: RPMI-8226 leukemia
M19-MEL melanoma = system: M19-MEL melanoma
IGROV1 ovarian = system: IGROV1 ovarian
SF-295 CNS = system: SF-295 CNS
EKVX NSCLC = system: EKVX NSCLC
SNB-78 CNS = system: SNB-78 CNS
UACC-257 melanoma = system: UACC-257 melanoma
DMS 273 small cell lung = system: DMS 273 small cell lung
OVCAR-8 ovarian = system: OVCAR-8 ovarian
UACC-62 melanoma = system: UACC-62 melanoma
UO-31 renal = system: UO-31 renal
U251 CNS = system: U251 CNS
TK-10 renal = system: TK-10 renal
DLD-1 colon = system: DLD-1 colon
SR leukemia = system: SR leukemia
HL-60(TB) leukemia = system: HL-60(TB) leukemia
HCC-2998 colon = system: HCC-2998 colon

## CC(=O)O[C@H]1CCC2[C@@H]3CCC4=C(O)c5nocc5C[C@]4(C)C3CC[C@@]21C (some centres undefined)
HOP-92 NSCLC
  TGI: > 100 µM
COLO 205 colon
  TGI: > 100 µM
SN12C renal
  TGI: > 100 µM
RXF 393 renal
  TGI: > 100 µM
MALME-3M melanoma
  TGI: > 100 µM
M14 melanoma
  TGI: > 100 µM
786-0 renal
  TGI: > 100 µM
HCT-116 colon
  TGI: > 100 µM
LXFL 529 NSCLC
  TGI: > 100 µM
SK-OV-3 ovarian
  TGI: > 100 µM
NCI-H226 lung
  TGI: > 100 µM
OVCAR-5 ovarian
  TGI: > 100 µM
MOLT-4 leukemia
  TGI: > 100 µM
HT29 colon
  TGI: > 100 µM
SF-539 CNS
  TGI: > 100 µM
SNB-19 CNS
  TGI: > 100 µM
LOX IMVI melanoma
  TGI: > 100 µM
A549 NSCLC
  TGI: > 100 µM
CCRF-CEM leukemia
  TGI: > 100 µM
SNB-75 CNS
  TGI: > 100 µM
NCI-H522 lung
  TGI: > 100 µM
HOP-62 NSCLC
  TGI: > 100 µM
KM20L2 colon
  TGI: > 100 µM
SK-MEL-28 melanoma
  TGI: > 100 µM
CAKI-1 renal
  TGI: > 100 µM
A498 renal
  TGI: > 100 µM
NCI-H460 lung
  TGI: > 100 µM
SK-MEL-5 melanoma
  TGI: > 100 µM
SW-620 colon
  TGI: > 100 µM
XF 498 CNS
  TGI: > 100 µM
HCT-15 colon
  TGI: > 100 µM
OVCAR-4 ovarian
  TGI: > 100 µM
DMS 114 small cell lung
  TGI: > 100 µM
HOP-18 NSCLC
  TGI: > 100 µM
SK-MEL-2 melanoma
  TGI: > 100 µM
OVCAR-3 ovarian
  TGI: > 100 µM
ACHN renal
  TGI: > 100 µM
K-562 leukemia
  TGI: > 100 µM
SF-268 CNS
  TGI: > 100 µM
NCI-H23 lung
  TGI: > 100 µM
KM12 colon
  TGI: > 100 µM
RPMI-8226 leukemia
  TGI: > 100 µM
M19-MEL melanoma
  TGI: > 100 µM
IGROV1 ovarian
  TGI: > 100 µM
SF-295 CNS
  TGI: > 100 µM
EKVX NSCLC
  TGI: > 100 µM
SNB-78 CNS
  TGI: > 100 µM
UACC-257 melanoma
  TGI: > 100 µM
DMS 273 small cell lung
  TGI: > 100 µM
OVCAR-8 ovarian
  TGI: > 100 µM
UACC-62 melanoma
  TGI: > 100 µM
UO-31 renal
  TGI: > 100 µM
U251 CNS
  TGI: > 100 µM
TK-10 renal
  TGI: > 100 µM

## CCc1cccc(C)c1NC(=O)C(=O)Cc1nc2ccccc2o1
HOP-92 NSCLC
  TGI: > 100 µM
COLO 205 colon
  TGI: > 100 µM
DLD-1 colon
  TGI: > 100 µM
SN12C renal
  TGI: > 100 µM
RXF 393 renal
  TGI: > 100 µM
MALME-3M melanoma
  TGI: > 100 µM
M14 melanoma
  TGI: > 100 µM
786-0 renal
  TGI: > 100 µM
HCT-116 colon
  TGI: > 100 µM
LXFL 529 NSCLC
  TGI: > 100 µM
SR leukemia
  TGI: > 100 µM
SK-OV-3 ovarian
  TGI: > 100 µM
NCI-H226 lung
  TGI: > 100 µM
OVCAR-5 ovarian
  TGI: > 100 µM
MOLT-4 leukemia
  TGI: > 100 µM
HT29 colon
  TGI: > 100 µM
SF-539 CNS
  TGI: > 100 µM
SNB-19 CNS
  TGI: > 100 µM
LOX IMVI melanoma
  TGI: > 100 µM
CCRF-CEM leukemia
  TGI: > 100 µM
HL-60(TB) leukemia
  TGI: > 100 µM
NCI-H522 lung
  TGI: > 100 µM
HOP-62 NSCLC
  TGI: > 100 µM
KM20L2 colon
  TGI: > 100 µM
SK-MEL-28 melanoma
  TGI: > 100 µM
CAKI-1 renal
  TGI: > 100 µM
A498 renal
  TGI: > 100 µM
NCI-H460 lung
  TGI: > 100 µM
SW-620 colon
  TGI: > 100 µM
XF 498 CNS
  TGI: > 100 µM
HCT-15 colon
  TGI: > 100 µM
OVCAR-4 ovarian
  TGI: > 100 µM
DMS 114 small cell lung
  TGI: > 100 µM
HCC-2998 colon
  TGI: > 100 µM
HOP-18 NSCLC
  TGI: > 100 µM
SK-MEL-2 melanoma
  TGI: > 100 µM
OVCAR-3 ovarian
  TGI: > 100 µM
ACHN renal
  TGI: > 100 µM
K-562 leukemia
  TGI: > 100 µM
SF-268 CNS
  TGI: > 100 µM
NCI-H23 lung
  TGI: > 100 µM
RPMI-8226 leukemia
  TGI: > 100 µM
M19-MEL melanoma
  TGI: > 100 µM
IGROV1 ovarian
  TGI: > 100 µM
SF-295 CNS
  TGI: > 100 µM
EKVX NSCLC
  TGI: > 100 µM
SNB-78 CNS
  TGI: > 100 µM
UACC-257 melanoma
  TGI: > 100 µM
OVCAR-8 ovarian
  TGI: > 100 µM
UACC-62 melanoma
  TGI: > 100 µM
UO-31 renal
  TGI: > 100 µM
U251 CNS
  TGI: > 100 µM
TK-10 renal
  TGI: > 100 µM

## O=S(Cc1ccccn1)c1nc2ccccc2nc1-c1ccccc1 (centres undefined)
HOP-92 NSCLC
  TGI: 83.3 µM
COLO 205 colon
  TGI: 32.8 µM
SN12C renal
  TGI: > 100 µM
MALME-3M melanoma
  TGI: 97.7 µM
M14 melanoma
  TGI: > 100 µM
786-0 renal
  TGI: > 100 µM
HCT-116 colon
  TGI: > 100 µM
LXFL 529 NSCLC
  TGI: > 100 µM
SK-OV-3 ovarian
  TGI: > 100 µM
NCI-H226 lung
  TGI: 76.2 µM
MOLT-4 leukemia
  TGI: > 100 µM
HT29 colon
  TGI: > 100 µM
SNB-19 CNS
  TGI: > 100 µM
A549 NSCLC
  TGI: > 100 µM
CCRF-CEM leukemia
  TGI: > 100 µM
HL-60(TB) leukemia
  TGI: 80.7 µM
SNB-75 CNS
  TGI: 79.6 µM
SK-MEL-28 melanoma
  TGI: > 100 µM
XF 498 CNS
  TGI: 47.3 µM
OVCAR-4 ovarian
  TGI: > 100 µM
DMS 114 small cell lung
  TGI: 69.6 µM
HOP-18 NSCLC
  TGI: > 100 µM
OVCAR-3 ovarian
  TGI: > 100 µM
ACHN renal
  TGI: > 100 µM
K-562 leukemia
  TGI: > 100 µM
SF-268 CNS
  TGI: > 100 µM
NCI-H23 lung
  TGI: > 100 µM
RPMI-8226 leukemia
  TGI: 91.3 µM
IGROV1 ovarian
  TGI: 73.3 µM
SF-295 CNS
  TGI: > 100 µM
EKVX NSCLC
  TGI: 73.7 µM
SNB-78 CNS
  TGI: 94 µM
UACC-257 melanoma
  TGI: 82 µM
DMS 273 small cell lung
  TGI: > 100 µM
OVCAR-8 ovarian
  TGI: > 100 µM
UO-31 renal
  TGI: 90.4 µM
U251 CNS
  TGI: > 100 µM
